Measured values published in patent US5834445A, “Process for preparing decolorized carotenoid-cyclodextrin complexes” (priority 1995, dated 1998).
“Also recorded” adds a separate entry of the source.

Legend:
[1] = test system: colon polyps; conditions: humans; cited from earlier work
[2] = test system: colon tumors; conditions: animals; cited from earlier work
[3] = test system: carcinogen-induced epidermoid carcinomas; conditions: in vivo; cited from earlier work
[4] = Comparative solubility in skin cream with different solubilization mixtures; format: physicochemical; conditions: summary of Tables V and VI
From the text: The relative scale used was from 1 = completely nonsoluble, precipitate
formed, to 10 = completely soluble, no precipitate or suspension visible.
In all cases the carotene was mixed with Solvent #1 prior to mixing with
Solvent #2. This mixture was in turn combined with LUBRIDERM skin cream,

[5] = Color and texture of prepared compositions and creams; format: physicochemical
Method: 50 milligrams of β carotene were added to 50 milligrams of vitamin E (as DL-alpha tocopherol acid succinate). To this mixture were added 50 milligrams of β cyclodextrin and 50 milligrams of gelatin derived from bovine skin (bloom 225, type III). […] Next, 1 milliliter of D20 and 1 milliliter of glycerine were added, in that order.
The mixture #1 was then added to 1 milliter of a commercial skin cream, LUBRIDERM, which contains water, mineral oil, petrolatum, sorbitol, lanolin, lanolin alcohol, triethanolamine, cetyl alcohol, butylparaben, methylparaben, propylparaben, and sodium chloride, in order of descending amount.
50 milligrams of β carotene were mixed thoroughly with 50 milligrams of β cyclodextrin. One milliliter of distilled H2 O (d-H2 O) was added to the mixture of carotene and cyclodextrin. […] Fifty milligrams of Vitamin E succinate (crystalline) were then added. […] Next, 1 milliliter of glycerine was added, followed by 150 milligrams of gelatin. […] The same skin cream base was added to composition 2 as in example 1, in the same amount.
Glycerine (1 milliliter) and/or gelatin (50 mg) were added to the mixture, followed by 1 milliliter of LUBRIDERM brand skin cream.

[6] = Aqueous solution of carotenoid with cyclodextrin, visible precipitate; format: physicochemical
Method: Twenty milligrams of β carotene is mixed with eighty milligrams (abbreviated "mg" hereinafter) of β cyclodextrin. The mixture is then added to 0.5 milliliters (hereinafter abbreviated "ml") of a buffered saline solution, and thoroughly mixed.

[7] = Color matching with COLOR-AID swatchbook; format: physicochemical; conditions: 1% β carotene, ⊕ darker, ⊖ paler than swatch
Method: Creams containing cyclodextrin-complexed β carotene and uncomplexed β carotene were prepared by adding the respective carotene preparation to one or more of several different commercially available creams. The commercial creams used include LUBRIDERM, NOXZEMA, POND'S hand cream, POND'S Cold Cream, and NIVEA moisturizing cream. The amount of complex needed to achieve a β carotene content of 1% by weight was calculated using the measurement of percent loading for the particular complex, and this amount was added to the cream as purchased. Control samples contained 1% uncomplexed β carotene by weight of the cream. […] Since the amount of β carotene by weight is the same in all the cream samples, including those to which β carotene was added in pure form and those to which the β carotene was added in the form of β carotene/cyclodextrin complex, differences in color intensity and hue are not ascribable to a simple dilution effect.
The color differences among complexed and uncomplexed β carotene and among creams containing complexed vs. uncomplexed β carotene are here characterized according to the COLOR-AID swatchbook.
In the present case, color matching was performed under fluorescent lighting of the full-spectrum type.

[8] = Color matching with COLORCURVE swatches; format: physicochemical; conditions: cream A, same set of samples as Table I
From the text: In the COLORCURVE system, colors are scaled on a 3-dimensional scheme. One dimension, which for convenience here will be termed the vertical dimension, is value, defined more or less according to Munsell (op cit). The two dimensions of each plane are hue and intensity or saturation. The "hues" of the COLORCURVE system are the four primary colors of visible light: red, yellow, green and blue. Like the COLOR-AID system, the COLORCURVE system provides coded swatches for color matching. Each coded color in the COLORCURVE system is defined by light reflectance values, tristimulus values, and L*a*b* values, these being colorimetric parameters known in the art.
In the COLORCURVE code, the first number specifies the level, that is, the value of the equivalent gray tone; the level numbers increase from darker values to lighter values. For example, Level 55 colors are paler than Level 50 colors, which in turn are paler than Level 45 colors. The second and third codes each consist of a letter followed by a single-digit number. The letter identifies one of four hues (R-red, Y-yellow, B-blue, and G-green, these being the four "primary" colors in light), and the number describes the intensity of the hue. Thus, L40 R3 Y2 specifies value Level 40, red hue saturation level of 3, and yellow hue saturation level of 2 (where increasing numbers from 1 to 8 designate increasing saturation levels). […]

[9] = test system: human oral cancer cells; conditions: in vitro; cited from earlier work
[10] = Absorbance loss at 450 nm of β-carotene/alpha-cyclodextrin with cysteine after 21 days; format: physicochemical; conditions: After 21 days at ambient conditions; UV-Vis
Method: As further described below, various amounts of cysteine were used. Spectroscopic measurements were then made of Samples C, D, E, F (Table VIII), and of a sample consisting of uncomplexed beta-carotene, which was used as a control group.
The results were measured as percent of absorbance loss at 450 nm. The percent of absorbance loss measures the intensity of absorbance. In turn, intensity of absorbance is directly correlated to oxidation and decomposition of beta-carotene.

[11] = test system: oral carcinoma cell; conditions: in at least some cases; cited from earlier work
[12] = visual
Method: Creams containing cyclodextrin-complexed β carotene and uncomplexed β carotene were prepared by adding the respective carotene preparation to one or more of several different commercially available creams. The commercial creams used include LUBRIDERM, NOXZEMA, POND'S hand cream, POND'S Cold Cream, and NIVEA moisturizing cream. The amount of complex needed to achieve a β carotene content of 1% by weight was calculated using the measurement of percent loading for the particular complex, and this amount was added to the cream as purchased. Control samples contained 1% uncomplexed β carotene by weight of the cream.

[13] = test system: DMBA induced squamous cell carcinoma; conditions: topical […] solution in mineral oil; cited from earlier work

For `CC1=C(CC(=O)O)c2cc(F)ccc2/C1=C\c1ccc([S+](C)[O-])cc1` (stereo not drawn) [Sulindac, cis-5-fluoro-2-methyl-1-[p-(methyl-sulfinyl)benzylidene]indene-3-acetic acid], which “regression of colon polyps” value [1] is on record?
The value was “cause regression of colon polyps in humans”.

What about the “growth of colon tumors” value [2] of the same molecule?
Its value is “inhibits growth of colon tumors in animals”.

Which “inhibition of development of carcinogen-induced epidermoid carcinomas” value [3] does the source give for `Cc1c(C)c2c(c(C)c1O)CCC(C)(CCCC(C)CCCC(C)CCCC(C)C)O2` (stereo not drawn) [Vitamin E (alpha tocopherol), alpha tocopherol] here?
Its value is “inhibit the development of carcinogen-induced epidermoid carcinomas, and in some cases to completely prevent their growth”.

With `CC1=C(/C=C/C(C)=C/C=C/C(C)=C/C=C/C=C(C)/C=C/C=C(C)/C=C/C2=C(C)CCCC2(C)C)C(C)(C)CCC1` [β-carotene] as the molecule, how does the “effect of mixing with βCD on solubility in LUBRIDERM skin cream” value [4] read?
Its value is “significantly increases its solubility”.

And the “texture of composition or cream” value ([5]; final cream)?
The value was “does not produce undesirable color changes or grainy textures”.

And the “appearance of skin cream with β carotene (previous attempts)” value ([5]; uncomplexed β carotene)?
The value was “unpleasant mustard-like appearance”.

And the “visible precipitate in aqueous solution” value ([6]; 20 mg β carotene with 80 mg β cyclodextrin, 0.5 ml buffered saline into 100 ml distilled water)?
The value was “clear solution with no visible precipitate”.

What about the “visible precipitate in aqueous solution” value ([6]; lesser amount or no cyclodextrin) of the same molecule?
Its value is “red-brown precipitate”.

And the “COLOR-AID code, LUBRIDERM” value [7]?
The value was “RO-P2-1⊕”.

And the “COLOR-AID code, PONDS” value ([7]; PONDS hand/skin cream)?
Its value is “O-S1⊕”.

And the “COLORCURVE code, A” value [8]?
The value was “L50 R3YS; also recorded: L55 R3YS”.

And the “inhibition of human oral cancer cells” value [9]?
Its value is “inhibit human oral cancer cells in vitro”.

What about the “selective killing of tumor cells over normal cells” value [9] of the same molecule?
Its value is “preferentially kill tumor cells over normal (non-tumor) cells”.

And the “% Abs. Loss (at 450 nm)” value [10]?
The value was 42%.

And the “tumor inhibitory effects vs Vitamin A” value [11]?
The value was “superior to Vitamin A in its tumor inhibitory effects”.

And the color of powder [12]?
The color of powder was “deep, red to orange-red color”.

What about the “number and sizes of tumors” value [13] of the same molecule?
Its value is “reduced the number and sizes of tumors”.
